Laboratory results published in US12077537B2 (Gilead Sciences, Inc., priority 2020, dated 2024).

System: HIV-IIIb
Assay: Antiviral assay in MT4 cells
Type: cell-based
Settings: Human immunodeficiency virus 1, MT4, 120 h; MT-4 cells mixed with HIV-IIIb at m.o.i. 0.003; 5 days at 37° C.; CellTiter-Glo luminescence; 50% decrease in signal, a measure of HIV-1 replication
Method in brief: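 MT-4 cells were infected with HIV-IIIb at m.o.i. 0.003 for 1 hour, then added to 3-fold serially diluted compound (10 concentrations, quadruplicate) in medium with 10% FBS. After 5 days at 37° C, cell viability was read by CellTiter-Glo chemiluminescence.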

| SMILES | EC50 [µM] |
| --- | --- |
| NC(=O)c1cc(-c2cc3sc(N4CCN(c5ccc(C(F)(F)F)cc5)CC4)nc3nc2[C@H](Cc2cc(F)cc(F)c2)NC(=O)Cn2nc(C(F)(F)F)c3c2C(F)(F)[C@@H]2C[C@H]32)ccc1F [Compound 141, 5-(5-((S)-1-(2-((3bS,4aR)-5,5-difluoro-3-(trifluoromethyl)-3b,4,4a,5-tetrahydro-1H-cyclopropa[3,4]cyclopenta[1,2-c]pyrazol-1-yl)acetamido)-2-(3,5-difluorophenyl)ethyl)-2-(4-(4-(trifluoromethyl)phenyl)piperazin-1-yl)thiazolo[4,5-b]pyridin-6-yl)-2-fluorobenzamide] | 1.81 |
| CSc1nc2nc([C@H](Cc3cc(F)cc(F)c3)NC(=O)Cn3nc(C(F)(F)F)c4c3C(F)(F)[C@@H]3C[C@H]43)c(-c3ccc4c(c3)C(=O)NC4)cc2s1 [Compound 142, 2-((3bS,4aR)-5,5-difluoro-3-(trifluoromethyl)-3b,4,4a,5-tetrahydro-1H-cyclopropa[3,4]cyclopenta[1,2-c]pyrazol-1-yl)-N—((S)-2-(3,5-difluorophenyl)-1-(2-(methylthio)-6-(3-oxoisoindolin-5-yl)thiazolo[4,5-b]pyridin-5-yl)ethyl)acetamide] | 0.0389 |
| O=C(Cn1nc(C(F)(F)F)c2c1C(F)(F)[C@@H]1C[C@H]21)N[C@@H](Cc1cc(F)cc(F)c1)c1nc2nc(-c3ccc4c(c3)C(=O)NC4)sc2cc1-c1ccc2c(c1)C(=O)NC2 [Compound 143, N—((S)-1-(2,6-bis(3-oxoisoindolin-5-yl)thiazolo[4,5-b]pyridin-5-yl)-2-(3,5-difluorophenyl)ethyl)-2-((3bS,4aR)-5,5-difluoro-3-(trifluoromethyl)-3b,4,4a,5-tetrahydro-1H-cyclopropa[3,4]cyclopenta[1,2-c]pyrazol-1-yl)acetamide] | 0.0155 |
| O=C(Cn1nc(C(F)(F)F)c2c1C(F)(F)[C@@H]1C[C@H]21)N[C@@H](Cc1cc(F)cc(F)c1)c1nc2nc(-c3ccc(N4CCOCC4)cc3)sc2cc1-c1ccc2c(c1)C(=O)NC2 [Compound 144, 2-((3bS,4aR)-5,5-difluoro-3-(trifluoromethyl)-3b,4,4a,5-tetrahydro-1H-cyclopropa[3,4]cyclopenta[1,2-c]pyrazol-1-yl)-N—((S)-2-(3,5-difluorophenyl)-1-(2-(4-morpholinophenyl)-6-(3-oxoisoindolin-5-yl)thiazolo[4,5-b]pyridin-5-yl)ethyl)acetamide] | 0.0444 |
| CC(C)(C)OC(=O)N1CCN(c2ccc(-c3nc4nc([C@H](Cc5cc(F)cc(F)c5)NC(=O)Cn5nc(C(F)(F)F)c6c5C(F)(F)[C@@H]5C[C@H]65)c(-c5ccc6c(c5)C(=O)NC6)cc4s3)cc2)CC1 [Compound 145, tert-butyl 4-(4-(5-((S)-1-(2-((3bS,4aR)-5,5-difluoro-3-(trifluoromethyl)-3b,4,4a,5-tetrahydro-1H-cyclopropa[3,4]cyclopenta[1,2-c]pyrazol-1-yl)acetamido)-2-(3,5-difluorophenyl)ethyl)-6-(3-oxoisoindolin-5-yl)thiazolo[4,5-b]pyridin-2-yl)phenyl)piperazine-1-carboxylate] | 0.37 |
| O=C(Cn1nc(C(F)(F)F)c2c1C(F)(F)[C@@H]1C[C@H]21)N[C@@H](Cc1cc(F)cc(F)c1)c1nc2nc(-c3ccc(N4CCNCC4)cc3)sc2cc1-c1ccc2c(c1)C(=O)NC2 [Compound 147, 2-((3bS,4aR)-5,5-difluoro-3-(trifluoromethyl)-3b,4,4a,5-tetrahydro-1H-cyclopropa[3,4]cyclopenta[1,2-c]pyrazol-1-yl)-N—((S)-2-(3,5-difluorophenyl)-1-(6-(3-oxoisoindolin-5-yl)-2-(4-(piperazin-1-yl)phenyl)thiazolo[4,5-b]pyridin-5-yl)ethyl)acetamide] | 0.037 |
| NC(=O)c1cc(-c2cc3sc(-c4cn[nH]c4)nc3nc2[C@H](Cc2cc(F)cc(F)c2)NC(=O)Cn2nc(C(F)(F)F)c3c2C(F)(F)[C@@H]2C[C@H]32)ccc1F [Compound 149, 5-(5-((S)-1-(2-((3bS,4aR)-5,5-difluoro-3-(trifluoromethyl)-3b,4,4a,5-tetrahydro-1H-cyclopropa[3,4]cyclopenta[1,2-c]pyrazol-1-yl)acetamido)-2-(3,5-difluorophenyl)ethyl)-2-(1H-pyrazol-4-yl)thiazolo[4,5-b]pyridin-6-yl)-2-fluorobenzamide] | 0.106 |
| CN(C)c1ncc(-c2nc3nc([C@H](Cc4cc(F)cc(F)c4)NC(=O)Cn4nc(C(F)(F)F)c5c4C(F)(F)[C@@H]4C[C@H]54)c(-c4cccc5c(NS(C)(=O)=O)nn(C)c45)cc3s2)cn1 [Compound 151, 2-((3bS,4aR)-5,5-difluoro-3-(trifluoromethyl)-3b,4,4a,5-tetrahydro-1H-cyclopropa[3,4]cyclopenta[1,2-c]pyrazol-1-yl)-N—((S)-2-(3,5-difluorophenyl)-1-(2-(2-(dimethylamino)pyrimidin-5-yl)-6-(1-methyl-3-(methylsulfonamido)-1H-indazol-7-yl)thiazolo[4,5-b]pyridin-5-yl)ethyl)acetamide] | 0.0141 |
| N#Cc1cc(-c2cc3sc(N4CCOCC4)nc3nc2[C@H](Cc2cc(F)cc(F)c2)NC(=O)Cn2nc(C(F)F)c3c2C(F)(F)CCC3(F)F)ccc1F [Example 3K, (S)—N-(1-(6-(3-cyano-4-fluorophenyl)-2-morpholinothiazolo[4,5-b]pyridin-5-yl)-2-(3,5-difluorophenyl)ethyl)-2-(3-(difluoromethyl)-4,4,7,7-tetrafluoro-4,5,6,7-tetrahydro-1H-indazol-1-yl)acetamide] | 1.8 |
| CN(C)CCNc1nc2nc([C@H](Cc3cc(F)cc(F)c3)NC(=O)Cn3nc(C(F)(F)F)c4c3C(F)(F)[C@@H]3C[C@H]43)c(-c3cccc4c(NS(C)(=O)=O)nn(C)c34)cc2s1 [Example 65, 2-((3bS,4aR)-5,5-difluoro-3-(trifluoromethyl)-3b,4,4a,5-tetrahydro-1H-cyclopropa[3,4]cyclopenta[1,2-c]pyrazol-1-yl)-N—((S)-2-(3,5-difluorophenyl)-1-(2-((2-(dimethylamino)ethyl)amino)-6-(1-methyl-3-(methylsulfonamido)-1H-indazol-7-yl)thiazolo[4,5-b]pyridin-5-yl)ethyl)acetamide] | 0.0236 |
| CN(C)C1CCN(c2nc3nc([C@H](Cc4cc(F)cc(F)c4)NC(=O)Cn4nc(C(F)(F)F)c5c4C(F)(F)[C@@H]4C[C@H]54)c(-c4cccc5c(NS(C)(=O)=O)nn(C)c45)cc3s2)CC1 [Example 66, 2-((3bS,4aR)-5,5-difluoro-3-(trifluoromethyl)-3b,4,4a,5-tetrahydro-1H-cyclopropa[3,4]cyclopenta[1,2-c]pyrazol-1-yl)-N—((S)-2-(3,5-difluorophenyl)-1-(2-(4-(dimethylamino)piperidin-1-yl)-6-(1-methyl-3-(methylsulfonamido)-1H-indazol-7-yl)thiazolo[4,5-b]pyridin-5-yl)ethyl)acetamide] | 0.0224 |

More lines, in order of falling EC50, values ahead:

| EC50 [µM] | SMILES |
| --- | --- |
| 29.7 | O=C(Cn1nc(C(F)(F)F)c2c1CCCC2)N[C@@H](Cc1ccccc1)c1nc2ccccc2[nH]1 [Example 1, (S)—N-(1-(1H-benzo[d]imidazol-2-yl)-2-phenylethyl)-2-(3-(trifluoromethyl)-4,5,6,7-tetrahydro-1H-indazol-1-yl)acetamide] |
| 0.0904 | NC(=O)c1cc(-c2cc3sc(-c4cncnc4)nc3nc2[C@H](Cc2cc(F)cc(F)c2)NC(=O)Cn2nc(C(F)(F)F)c3c2C(F)(F)[C@@H]2C[C@H]32)ccc1F [Compound 148, 5-(5-((S)-1-(2-((3bS,4aR)-5,5-difluoro-3-(trifluoromethyl)-3b,4,4a,5-tetrahydro-1H-cyclopropa[3,4]cyclopenta[1,2-c]pyrazol-1-yl)acetamido)-2-(3,5-difluorophenyl)ethyl)-2-(pyrimidin-5-yl)thiazolo[4,5-b]pyridin-6-yl)-2-fluorobenzamide] |
| 0.0273 | CC(CN(C)C)Nc1nc2nc([C@H](Cc3cc(F)cc(F)c3)NC(=O)Cn3nc(C(F)(F)F)c4c3C(F)(F)[C@@H]3C[C@H]43)c(-c3cccc4c(NS(C)(=O)=O)nn(C)c34)cc2s1 (stereo partly drawn) [Example 67, 2-((3bS,4aR)-5,5-difluoro-3-(trifluoromethyl)-3b,4,4a,5-tetrahydro-1H-cyclopropa[3,4]cyclopenta[1,2-c]pyrazol-1-yl)-N-((1S)-2-(3,5-difluorophenyl)-1-(2-((1-(dimethylamino)propan-2-yl)amino)-6-(1-methyl-3-(methylsulfonamido)-1H-indazol-7-yl)thiazolo[4,5-b]pyridin-5-yl)ethyl)acetamide] |
| 0.008 | CN(C)C1CN(c2nc3nc([C@H](Cc4cc(F)cc(F)c4)NC(=O)Cn4nc(C(F)(F)F)c5c4C(F)(F)[C@@H]4C[C@H]54)c(-c4cccc5c(NS(C)(=O)=O)nn(C)c45)cc3s2)C1 [Compound 150, 2-((3bS,4aR)-5,5-difluoro-3-(trifluoromethyl)-3b,4,4a,5-tetrahydro-1H-cyclopropa[3,4]cyclopenta[1,2-c]pyrazol-1-yl)-N—((S)-2-(3,5-difluorophenyl)-1-(2-(3-(dimethylamino)azetidin-1-yl)-6-(1-methyl-3-(methylsulfonamido)-1H-indazol-7-yl)thiazolo[4,5-b]pyridin-5-yl)ethyl)acetamide] |
| 0.0067 | CCN1CCN(c2nc3nc([C@H](Cc4cc(F)cc(F)c4)NC(=O)Cn4nc(C(F)(F)F)c5c4C(F)(F)[C@@H]4C[C@H]54)c(-c4cccc5c(NS(C)(=O)=O)nn(C)c45)cc3s2)CC1 [Example 68, 2-((3bS,4aR)-5,5-difluoro-3-(trifluoromethyl)-3b,4,4a,5-tetrahydro-1H-cyclopropa[3,4]cyclopenta[1,2-c]pyrazol-1-yl)-N—((S)-2-(3,5-difluorophenyl)-1-(2-(4-ethylpiperazin-1-yl)-6-(1-methyl-3-(methylsulfonamido)-1H-indazol-7-yl)thiazolo[4,5-b]pyridin-5-yl)ethyl)acetamide] |
